Results as given in US11071731B2, “Allosteric modulators of the mu opioid receptor” (Chiromics, LLC, priority 2017, dated 2021).

Experiments:
mu opioid receptor (MOR) [1] = biological target: T1, mu opioid receptor (MOR) (Homo sapiens, UniProt P35372); experiment: Hit Hunter cAMP signaling assay (adenylyl cyclase inhibition), PAM mode with EC20 endomorphin-1; format: cell-based; conditions: for cAMP Max. Resp.: maximal response for adenylyl cyclase inhibition
mu opioid receptor (MOR) [2] = biological target: T1, mu opioid receptor (MOR); experiment: PathHunter β-arrestin recruitment assay, PAM mode with EC20 endomorphin-1; format: cell-based; conditions: for β-arr Max. Resp.: maximal response for β-arrestin recruitment
Procedure, shortened: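 Enzyme fragment complementation read-out: β-gal ED fragment fused to receptor, EA fused to β-arrestin, recruitment restoring β-gal activity detected by chemiluminescence. EC50 and percent maximal response derived for each compound.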

[3] = cAMP EC50, adenylyl cyclase inhibition
[4] = β-arrestin recruitment, read-out: β-arr. EC50
[5] = adenylyl cyclase inhibition, read-out: cAMP EC50

T1 sequence (P35372 whole entry): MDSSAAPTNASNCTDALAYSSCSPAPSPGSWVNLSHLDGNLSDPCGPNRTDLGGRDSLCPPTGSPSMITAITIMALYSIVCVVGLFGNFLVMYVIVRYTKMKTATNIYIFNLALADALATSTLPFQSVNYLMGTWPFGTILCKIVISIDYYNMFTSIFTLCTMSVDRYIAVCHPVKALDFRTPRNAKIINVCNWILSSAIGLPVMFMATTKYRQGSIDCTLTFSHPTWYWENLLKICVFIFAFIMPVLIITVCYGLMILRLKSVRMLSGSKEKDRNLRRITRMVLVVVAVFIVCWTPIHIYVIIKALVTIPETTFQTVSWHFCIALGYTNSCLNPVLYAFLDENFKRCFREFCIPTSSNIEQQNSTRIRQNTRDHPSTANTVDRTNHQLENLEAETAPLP

| Compound | EC50 (mu opioid receptor (MOR) [1]; [3]) [µM] | cAMP Max. Resp. (mu opioid receptor (MOR) [1]) | β-arr Max. Resp. (mu opioid receptor (MOR) [2]) | EC50 (mu opioid receptor (MOR) [2]; [4]) [µM] | EC50 (mu opioid receptor (MOR) [1]) [µM] | EC50 (mu opioid receptor (MOR) [2]; β-arr. EC50, β-arrestin recruitment) [µM] | EC50 (mu opioid receptor (MOR) [1]; [5]) [µM] |
| --- | --- | --- | --- | --- | --- | --- | --- |
| COc1cc(C2CCCCN2c2nc(Cl)ncc2F)ccn1 (centres unmarked) [compound 275] | > 2.1 | D (D represents a maximal response of < 40%) | D (D represents a maximal response of < 40%) | > 2.1 | – | – | – |
| Fc1cnc(Cl)nc1N1CCCCC1c1cccc(Cl)n1 (centres unmarked) [compound 276] | – | D (D represents a maximal response of < 40%) | E (E represents a maximal response of 40-60%) | – | 0.7 to 2.1 | > 2.1 | – |
| Fc1cnc(Cl)nc1N1CCCCC1c1cncc(Cl)n1 (centres unmarked) [compound 277] | > 2.1 | D (D represents a maximal response of < 40%) | E (E represents a maximal response of 40-60%) | > 2.1 | – | – | – |
| Fc1cnc(Cl)nc1N1CCCCC1c1cc(C(F)(F)F)ccn1 (centres unmarked) [compound 278] | 0.7 to 2.1 | F (F represents a maximal response of > 60%) | F (F represents a maximal response of > 60%) | > 2.1 | – | – | – |
| O=c1[nH]c2ccc(C3CCCCN3c3nc(Cl)ncc3F)cc2o1 (centres unmarked) [compound 279] | > 2.1 | F (F represents a maximal response of > 60%) | D (D represents a maximal response of < 40%) | > 2.1 | – | – | – |
| Fc1cnc(Cl)nc1N1CCCCC1c1cncc(Cl)c1 (centres unmarked) [compound 280] | – | E (E represents a maximal response of 40-60%) | F (F represents a maximal response of > 60%) | – | > 2.1 | – | – |
| Cc1ccc(C2CCCCN2c2nc(Cl)ncc2F)cc1Br (centres unmarked) [compound 281] | < 0.7 | D (D represents a maximal response of < 40%) | F (F represents a maximal response of > 60%) | 0.7 to 2.1 | – | – | – |
| Fc1cnc(Cl)nc1N1CCCCC1c1ccnc2ccccc12 (centres unmarked) [compound 283] | > 2.1 | F (F represents a maximal response of > 60%) | D (D represents a maximal response of < 40%) | > 2.1 | – | – | – |
| Fc1cnc(Cl)nc1N1CCCCC1c1cccc2nccn12 (centres unmarked) [compound 284] | > 2.1 | E (E represents a maximal response of 40-60%) | D (D represents a maximal response of < 40%) | > 2.1 | – | – | – |
| Fc1cnc(Cl)nc1N1CCCCC1c1cccc(Cl)c1 (centres unmarked) [compound 285] | > 2.1 | E (E represents a maximal response of 40-60%) | F (F represents a maximal response of > 60%) | 0.7 to 2.1 | – | – | – |
| Fc1cnc(Cl)nc1N1CCCCC1c1cccc2ccncc12 (centres unmarked) [compound 286] | > 2.1 | D (D represents a maximal response of < 40%) | D (D represents a maximal response of < 40%) | > 2.1 | – | – | – |
| Fc1cnc(Cl)nc1N1CCCCC1c1ccc(Br)c(C(F)(F)F)c1 (centres unmarked) [compound 287] | < 0.7 | D (D represents a maximal response of < 40%) | F (F represents a maximal response of > 60%) | 0.7 to 2.1 | – | – | – |
| COc1cc(C2CCCCN2c2nc(Cl)ncc2F)ccc1Br (centres unmarked) [compound 288] | > 2.1 | E (E represents a maximal response of 40-60%) | F (F represents a maximal response of > 60%) | > 2.1 | – | – | – |
| COc1ccc(C2CCCCN2c2nc(Cl)ncc2F)cc1C(F)(F)F (centres unmarked) [compound 289] | > 2.1 | D (D represents a maximal response of < 40%) | F (F represents a maximal response of > 60%) | 0.7 to 2.1 | – | – | – |
| Fc1cc(C2CCCCN2c2nc(Cl)ncc2F)ccc1Br (centres unmarked) [compound 290] | < 0.7 | D (D represents a maximal response of < 40%) | F (F represents a maximal response of > 60%) | < 0.7 | – | – | – |
| Fc1cnc(Cl)nc1N1CCCCC1c1ccc2cnnn2c1 (centres unmarked) [compound 291] | > 2.1 | F (F represents a maximal response of > 60%) | D (D represents a maximal response of < 40%) | > 2.1 | – | – | – |

| Compound | EC50 (mu opioid receptor (MOR) [1]; [3]) [µM] | cAMP Max. Resp. (mu opioid receptor (MOR) [1]) | β-arr Max. Resp. (mu opioid receptor (MOR) [2]) | EC50 (mu opioid receptor (MOR) [2]; [4]) [µM] | EC50 (mu opioid receptor (MOR) [1]) [µM] | EC50 (mu opioid receptor (MOR) [2]; β-arr. EC50, β-arrestin recruitment) [µM] | EC50 (mu opioid receptor (MOR) [1]; [5]) [µM] |
| --- | --- | --- | --- | --- | --- | --- | --- |
| OC1CCN(c2nc(Cl)ncc2F)C(c2ccc(F)c(Cl)c2)C1 (centres unmarked) [compound 293] | 0.7 to 2.1 | F (F represents a maximal response of > 60%) | F (F represents a maximal response of > 60%) | > 2.1 | – | – | – |
| COc1ccc(C2CCCCN2c2nc(Cl)ncc2F)cc1OC (centres unmarked) [compound 294] | > 2.1 | F (F represents a maximal response of > 60%) | D (D represents a maximal response of < 40%) | > 2.1 | – | – | – |
| COc1ncc(N2CCCCC2c2cccc(C(F)(F)F)c2)c(F)n1 (centres unmarked) [compound 295] | – | D (D represents a maximal response of < 40%) | D (D represents a maximal response of < 40%) | > 2.1 | – | – | > 2.1 |
| COc1ncc(N2CCCCC2c2cccc(F)n2)c(F)n1 (centres unmarked) [compound 296] | – | D (D represents a maximal response of < 40%) | D (D represents a maximal response of < 40%) | > 2.1 | – | – | > 2.1 |
| Fc1ccc(C2CCCCN2c2nc(Cl)ncc2F)cn1 (centres unmarked) [compound 297] | – | E (E represents a maximal response of 40-60%) | E (E represents a maximal response of 40-60%) | – | > 2.1 | – | – |
| Fc1cnc(Cl)nc1N1CCCCC1c1cccc(C(F)F)c1 (centres unmarked) [compound 298] | < 0.7 | F (F represents a maximal response of > 60%) | F (F represents a maximal response of > 60%) | > 2.1 | – | – | – |
| Fc1ccc(C2CCCCN2c2nc(Cl)ncc2F)cc1C(F)F (centres unmarked) [compound 299] | < 0.7 | F (F represents a maximal response of > 60%) | F (F represents a maximal response of > 60%) | 0.7 to 2.1 | – | – | – |
| Cn1cnc2cc(C(F)(F)F)cc(C3CCCCN3c3nc(Cl)ncc3F)c21 (centres unmarked) [compound 300] | > 2.1 | F (F represents a maximal response of > 60%) | E (E represents a maximal response of 40-60%) | > 2.1 | – | – | – |
| Fc1cc(C2CCC(OCCN3CCOCC3)CN2c2nc(Cl)ncc2F)cc(C(F)(F)F)c1 (centres unmarked) [compound 304] | – | D (D represents a maximal response of < 40%) | D (D represents a maximal response of < 40%) | > 2.1 | – | – | > 2.1 |
| OC1CCC(c2cc(F)cc(C(F)(F)F)c2)N(c2nc(Cl)ncc2F)C1 (centres unmarked) [compound 311] | 0.7 to 2.1 | F (F represents a maximal response of > 60%) | F (F represents a maximal response of > 60%) | > 2.1 | – | – | – |
| Fc1cc(C2CCC(F)CN2c2nc(Cl)ncc2F)cc(C(F)(F)F)c1 (centres unmarked) [compound 312] | – | F (F represents a maximal response of > 60%) | F (F represents a maximal response of > 60%) | < 0.7 | – | – | < 0.7 |
| Fc1cc(C2CCC(F)CN2c2nc(Cl)ncc2F)cc(C(F)(F)F)c1 (centres unmarked) [compound 313] | – | E (E represents a maximal response of 40-60%) | F (F represents a maximal response of > 60%) | > 2.1 | – | – | 0.7 to 2.1 |
| Fc1cnc(Cl)nc1N1CCCCC1c1ccc2ncccc2c1 (centres unmarked) [compound 326] | < 0.7 | D (D represents a maximal response of < 40%) | D (D represents a maximal response of < 40%) | < 0.7 | – | – | – |
| Fc1cnc(Cl)nc1N1CCCCC1c1cc(F)c(F)c(F)c1 (centres unmarked) [compound 327] | < 0.7 | D (D represents a maximal response of < 40%) | D (D represents a maximal response of < 40%) | < 0.7 | – | – | – |
| Fc1cnc(Cl)nc1N1CCCCC1c1ccnc(Cl)c1 (centres unmarked) [compound 328] | < 0.7 | D (D represents a maximal response of < 40%) | D (D represents a maximal response of < 40%) | < 0.7 | – | – | – |
